Legend:
Assay in all cases: DiscoverX KinomeScreen competition binding assay (kinase selectivity panel)
[1] = biological target: T1, panel of ninety-seven kinases (Homo sapiens, UniProt O00750); details: PIK3C2B; screened at 3000 nM
T1 construct: purchased DiscoverX; host or cells: E. coli (BL21-derived, T7 phage display) or HEK-293
Description: (§1) This has been investigated by testing atropisomer A-2 for off-target activity against a panel of ninety-seven kinases distributed across the kinome at a concentration of 3 μM using the DiscoverX KinomeScreen assay. The DiscoverX KinomeScreen assay is a site-directed competition binding assay which measures the binding affinity of a compound to a kinase, by use of a solid supported control compound which can bind or capture the kinases in solution. In the absence of a kinase-inhibitor test compound, all of the kinase will bind to the solid support. If a kinase-inhibitor test compound is added to the assay mix, the amount of kinase binding to the solid support will be reduced, the extent of reduction being dependent on the potency of the test compound as a kinase inhibitor. […] For most assays, kinase-tagged T7 phage strains were grown in parallel in 24-well blocks in an E. coli host derived from the BL21 strain. E. coli were grown to log-phase and infected with T7 phage from a frozen stock (multiplicity of infection=0.4) and incubated with shaking at 32° C. until lysis (90-150 minutes). The lysates were centrifuged (6,000×g) and filtered (0.2 μm) to remove cell debris. The remaining kinases were produced in HEK-293 cells and subsequently tagged with DNA for qPCR detection. Streptavidin-coated magnetic beads were treated with biotinylated small molecule ligands for 30 minutes at room temperature to generate affinity resins for kinase assays. The liganded beads were blocked with excess biotin and washed with blocking buffer (SeaBlock (Pierce), 1% BSA, 0.05% Tween 20, 1 mM DTT) to remove unbound ligand and to reduce non-specific phage binding. […] Test compounds were prepared as 40× stocks in 100% DMSO and directly diluted into the assay. All reactions were performed in polypropylene 384-well plates in a final volume of 0.02 ml. […] The beads were then re-suspended in elution buffer (1×PBS, 0.05% Tween 20, 0.5 μM non-biotinylated affinity ligand) and incubated at room temperature with shaking for 30 minutes. The kinase concentration in the eluates was measured by qPCR. Compounds that bind the kinase active site and directly (sterically) or indirectly (allosterically) prevent kinase binding to the immobilized ligand, will reduce the amount of kinase captured on the solid support. […] The strength of binding of the test molecule to the kinase can be expressed as the percent control (% Ctrl) The compound(s) were screened at 3000 nM concentration, and results for primary screen binding interactions are reported as ‘% Ctrl’, where lower numbers indicate stronger hits in the matrix on the following page(s). [formula] • negative control=DMSO (100% Ctrl) • positive control=control compound (0% Ctrl)

[2] = biological target: T2, panel of ninety-seven kinases (Homo sapiens, UniProt O15530); details: PDPK1; screened at 3000 nM
T2 construct: purchased DiscoverX; host or cells: E. coli (BL21-derived, T7 phage display) or HEK-293
Description: as §1

[3] = biological target: T3, panel of ninety-seven kinases (Homo sapiens, UniProt P04049); details: RAF1; screened at 3000 nM
T3 construct: purchased DiscoverX; host or cells: E. coli (BL21-derived, T7 phage display) or HEK-293
Description: as §1

[4] = biological target: T4, panel of ninety-seven kinases (Homo sapiens, UniProt P04626); details: ERBB2; screened at 3000 nM
T4 construct: purchased DiscoverX; host or cells: E. coli (BL21-derived, T7 phage display) or HEK-293
Description: as §1

[5] = biological target: T5, panel of ninety-seven kinases (Homo sapiens, UniProt P08069); details: IGF1R; screened at 3000 nM
T5 construct: purchased DiscoverX; host or cells: E. coli (BL21-derived, T7 phage display) or HEK-293
Description: as §1

[6] = biological target: T6, panel of ninety-seven kinases (Homo sapiens, UniProt P11309); details: PIM1; screened at 3000 nM
T6 construct: purchased DiscoverX; host or cells: E. coli (BL21-derived, T7 phage display) or HEK-293
Description: as §1

[7] = biological target: T7, panel of ninety-seven kinases (Homo sapiens, UniProt P16234); details: PDGFRA; screened at 3000 nM
T7 construct: purchased DiscoverX; host or cells: E. coli (BL21-derived, T7 phage display) or HEK-293
Description: as §1

[8] = biological target: T8, panel of ninety-seven kinases (Homo sapiens, UniProt P30530); details: AXL; screened at 3000 nM
T8 construct: purchased DiscoverX; host or cells: E. coli (BL21-derived, T7 phage display) or HEK-293
Description: as §1

[9] = biological target: T9, panel of ninety-seven kinases (Homo sapiens, UniProt P31749); details: AKT1; screened at 3000 nM
T9 construct: purchased DiscoverX; host or cells: E. coli (BL21-derived, T7 phage display) or HEK-293
Description: as §1

[10] = biological target: T10, panel of ninety-seven kinases (Homo sapiens, UniProt P45983); details: MAPK8; screened at 3000 nM
T10 construct: purchased DiscoverX; host or cells: E. coli (BL21-derived, T7 phage display) or HEK-293
Description: as §1

[11] = biological target: T11, panel of ninety-seven kinases (Homo sapiens, UniProt P80192); details: MAP3K9; screened at 3000 nM
T11 construct: purchased DiscoverX; host or cells: E. coli (BL21-derived, T7 phage display) or HEK-293
Description: as §1

[12] = biological target: T12, panel of ninety-seven kinases (Homo sapiens, UniProt Q00526); details: CDK3; screened at 3000 nM
T12 construct: purchased DiscoverX; host or cells: E. coli (BL21-derived, T7 phage display) or HEK-293
Description: as §1

[13] = biological target: T13, panel of ninety-seven kinases (Homo sapiens, UniProt Q02750); details: MAP2K1; screened at 3000 nM
T13 construct: purchased DiscoverX; host or cells: E. coli (BL21-derived, T7 phage display) or HEK-293
Description: as §1

[14] = biological target: T14, panel of ninety-seven kinases (Homo sapiens, UniProt Q02763); details: TEK; screened at 3000 nM
T14 construct: purchased DiscoverX; host or cells: E. coli (BL21-derived, T7 phage display) or HEK-293
Description: as §1

[15] = biological target: T15, panel of ninety-seven kinases (Homo sapiens, UniProt Q13177); details: PAK2; screened at 3000 nM
T15 construct: purchased DiscoverX; host or cells: E. coli (BL21-derived, T7 phage display) or HEK-293
Description: as §1

[16] = biological target: T16, panel of ninety-seven kinases (Homo sapiens, UniProt Q15831); details: STK11; screened at 3000 nM
T16 construct: purchased DiscoverX; host or cells: E. coli (BL21-derived, T7 phage display) or HEK-293
Description: as §1

[17] = biological target: T17, panel of ninety-seven kinases (Homo sapiens, UniProt Q86V86); details: PIM3; screened at 3000 nM
T17 construct: purchased DiscoverX; host or cells: E. coli (BL21-derived, T7 phage display) or HEK-293
Description: as §1

[18] = biological target: T18, panel of ninety-seven kinases (Homo sapiens, UniProt Q8NI60); details: CABC1; screened at 3000 nM
T18 construct: purchased DiscoverX; host or cells: E. coli (BL21-derived, T7 phage display) or HEK-293
Description: as §1

[19] = biological target: T19, panel of ninety-seven kinases (Homo sapiens, UniProt Q9BVS4); details: RIOK2; screened at 3000 nM
T19 construct: purchased DiscoverX; host or cells: E. coli (BL21-derived, T7 phage display) or HEK-293
Description: as §1

[20] = biological target: T20, panel of ninety-seven kinases (Homo sapiens, UniProt Q9BXA7); details: TSSK1B; screened at 3000 nM
T20 construct: purchased DiscoverX; host or cells: E. coli (BL21-derived, T7 phage display) or HEK-293
Description: as §1

[21] = biological target: T21, panel of ninety-seven kinases (Homo sapiens, UniProt Q9Y463); details: DYRK1B; screened at 3000 nM
T21 construct: purchased DiscoverX; host or cells: E. coli (BL21-derived, T7 phage display) or HEK-293
Description: as §1

[22] = test system: panel of ninety-seven kinases; details: for % Ctrl @ 3 μM: screened at 3000 nM
Description: as §1

% Ctrl @ 3 μM [1]: 100 % Ctrl | % Ctrl @ 3 μM [2]: 96 % Ctrl | % Ctrl @ 3 μM [3]: 92 % Ctrl | % Ctrl @ 3 μM [4]: 66 % Ctrl | % Ctrl @ 3 μM [5]: 100 % Ctrl | % Ctrl @ 3 μM [6]: 99 % Ctrl | % Ctrl @ 3 μM [7]: 100 % Ctrl | % Ctrl @ 3 μM [8]: 93 % Ctrl | % Ctrl @ 3 μM [9]: 98 % Ctrl | % Ctrl @ 3 μM [10]: 77 % Ctrl | % Ctrl @ 3 μM [11]: 96 % Ctrl | % Ctrl @ 3 μM [12]: 100 % Ctrl | % Ctrl @ 3 μM [13]: 84 % Ctrl | % Ctrl @ 3 μM [14]: 99 % Ctrl | % Ctrl @ 3 μM [15]: 100 % Ctrl | % Ctrl @ 3 μM [16]: 81 % Ctrl | % Ctrl @ 3 μM [17]: 98 % Ctrl | % Ctrl @ 3 μM [18]: 63 % Ctrl | % Ctrl @ 3 μM [19]: 100 % Ctrl | % Ctrl @ 3 μM [20]: 100 % Ctrl | % Ctrl @ 3 μM [21]: 97 % Ctrl | binding activity against panel kinases (% Ctrl) ([22]; 3 μM (3000 nM), ninety-seven kinases): poor or non-existent binding activity | % Ctrl @ 3 μM ([22]; EGFR): 100 % Ctrl | % Ctrl @ 3 μM ([22]; KIT): 100 % Ctrl
Structure (SMILES): CN(C)CCNC(=O)c1ccc(-c2ccc(-c3ccc(Cl)cc3)n2-c2ccccc2C(F)(F)F)cc1 (single isomer, unassigned) [Atropisomer A-2]
